Results: the supplement of paper PMC10307832

Legend:
Test in all cases: relative viability (nuclei count vs DMSO), 5 days (fraction); higher = more cells survive
AZ3146 + Phenformin = compound: CN1CCC(CC1)OC2=CC(=C(C=C2)NC3=NC=C4C(=N3)N(C(=O)N4C)C5CCCC5)OC [AZ3146] + N=C(N)NC(=N)NCCc1ccccc1 [Phenformin] (partner 250 µM)
Method in brief: (§1)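 Five library-drug doses in √10 steps were combined with a fixed anchor-drug dose, or a single drug was given alone, by pin tool to lung cancer cell lines in 1536-well plates the day after seeding. Nuclei were stained and counted after 5 days. Relative viability is the nuclei count in treated wells over that in vehicle wells, taken as the median of duplicate plates.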

GSK-J4 + Dasatinib = compound: CCOC(=O)CCNc1cc(N2CCc3ccccc3CC2)nc(-c2ccccn2)n1 [GSK-J4] + Cc1nc(Nc2ncc(C(=O)Nc3c(C)cccc3Cl)s2)cc(N2CCN(CCO)CC2)n1 [Dasatinib] (partner 0.075 µM)
Method in brief: as §1

AZ3146 + Foretinib = compound: CN1CCC(CC1)OC2=CC(=C(C=C2)NC3=NC=C4C(=N3)N(C(=O)N4C)C5CCCC5)OC [AZ3146] + COc1cc2c(Oc3ccc(NC(=O)C4(C(=O)Nc5ccc(F)cc5)CC4)cc3F)ccnc2cc1OCCCN1CCOCC1 [Foretinib] (partner 0.25 µM)
Method in brief: as §1

GSK-J4 + Alpelisib = compound: CCOC(=O)CCNc1cc(N2CCc3ccccc3CC2)nc(-c2ccccn2)n1 [GSK-J4] + Cc1nc(NC(=O)N2CCC[C@H]2C(N)=O)sc1-c1ccnc(C(C)(C)C(F)(F)F)c1 [Alpelisib] (partner 2 µM)
Method in brief: as §1

Cell Line	relative viability (AZ3146 + Phenformin; first compound 0.08 µM)	relative viability (AZ3146 + Phenformin; first compound 0.253 µM)	relative viability (AZ3146 + Phenformin; first compound 0.8 µM)	relative viability (AZ3146 + Phenformin; first compound 2.53 µM)	relative viability (AZ3146 + Phenformin; first compound 8 µM)	relative viability (GSK-J4 + Dasatinib; first compound 0.5 µM)	relative viability (GSK-J4 + Dasatinib; first compound 1.581 µM)	relative viability (GSK-J4 + Dasatinib; first compound 5 µM)	relative viability (GSK-J4 + Dasatinib; first compound 15.81 µM)	relative viability (GSK-J4 + Dasatinib; first compound 50 µM)	relative viability (AZ3146 + Foretinib; first compound 0.08 µM)	relative viability (AZ3146 + Foretinib; first compound 0.253 µM)	relative viability (AZ3146 + Foretinib; first compound 0.8 µM)	relative viability (AZ3146 + Foretinib; first compound 2.53 µM)	relative viability (AZ3146 + Foretinib; first compound 8 µM)	relative viability (GSK-J4 + Alpelisib; first compound 0.5 µM)	relative viability (GSK-J4 + Alpelisib; first compound 1.581 µM)	relative viability (GSK-J4 + Alpelisib; first compound 5 µM)	relative viability (GSK-J4 + Alpelisib; first compound 15.81 µM)	relative viability (GSK-J4 + Alpelisib; first compound 50 µM)
201T	0.448	0.446	0.438	0.424	0.455	0.576	0.6	0.639	0.391	0.348	0.945	1.02	1.08	1.13	1.06	0.977	0.831	1.02	0.988	0.9
A549		0.153	0.168	0.131	0.0734						1.08	0.952	0.743	0.177	0.063	0.765	0.578	0.669	0.823	0.691
A-427	0.375	0.332	0.243	0.282	0.227	0.609		0.363	0.655	0.274	1.02	1.07	1	0.989	1.11	1		1.17	1.08	0.561
ABC-1	0.266	0.19	0.212	0.226	0.26	0.47	0.546	0.465	0.598	0.297	0.98	1.01	1.29	1.1	0.709	1.2	0.898	1.04	0.971	0.735
BEN		0.291	0.248	0.268	0.242	0.398	0.362		0.304	0.284		0.447	0.587	0.715	0.698	1.04	0.882		0.974	0.948
CAL-12T	0.674	0.575	0.568	0.6	0.405	0.431	0.477	0.465	0.405	0.335	1.08	1.12	1.04	0.98	0.788	1.12	1.11	1.43	1.29	1.29
COR-L23	0.401	0.44	0.416	0.526	0.336	0.477	0.393		0.409	0.413	0.979	1.08	0.877	0.987	0.787	0.677	0.709		0.68	0.781
COR-L 105	0.548	0.451	0.505	0.388	0.294	0.338	0.38	0.276	0.315	0.326	1.11	1.04	0.857	0.687	0.455	1.11	0.99	1.07	0.912	1.16
Calu-6											0.792	0.996	0.891	0.792	0.48	0.914	0.815	0.834	1.05	0.915
